System: EAE model
Test: Drug efficiency evaluation in experimental autoimmune encephalomyelitis (EAE) model
Assay type: in vivo
Conditions: DA rats, oral twice a day, 15 mg/kg, day 0 to day 13; mean ± standard error
Protocol: The Drug Efficiency Evaluation in Experimental Autoimmune Encephalomyelitis (EAE) Model
An EAE model (experimental autoimmune encephalomyelitis, hereinafter referred to as EAE), which is widely used as an animal model reflecting the pathological condition of human multiple sclerosis was prepared using DA rats (Japan SLC, 8 to 9-week-old in use) as described below, and the effect of test compound was confirmed.
Firstly, the emulsion for immunization was prepared by the method described below. After rats were sacrificed by exsanguination from the carotid artery under anesthesia of isoflurane, two spinal cords and a brain were collected. […]
The EAE score was evaluated daily to day 13 as day 0 when DA rats were immunized. The EAE score was evaluated as 0-5 points: 0 points: no symptoms, 1 point: walkable straight with normal our limbs but complete loss of tail tonus, 2 points: slight paralysis of a limb (especially hind limbs) and walkable wobbly, 3 points: full paralysis of two limbs (especially hind limbs) and walkable with a limp, 4 points: tetraplegia, moribund or abasia, 5 points: dead.
The area under the curve was calculated based on the variation per day of EAE score during evaluation periods from immunization day 0 to day 13, and used as an index for effects of test compounds.

## CCN(c1ccc(Cl)c(C(F)(F)F)c1)C(C)c1ccc(C)c(CN2CC(C(=O)O)C2)c1 (stereo not shown) [Compound 2-7, 1-(5-{1-[(4-Chloro-3-trifluoromethylphenyl)(ethyl)amino]ethyl}-2-methylbenzyl)-azetidine-3-carboxylic acid]
  Area under the curve of EAE score: 6.1 ± 1.6

From patent US9718771B2, “Aniline derivative, pharmaceutical composition containing same, and use thereof” (Kissei Pharmaceutical Co., Ltd., priority 2014, dated 2017)
